Results published in patent publication US6677328B1, “Method for the prevention of colonic adenomas” (priority 1995, dated 2004).

Columns and labels:
Assay type in all cases: in vivo, Male Fischer 344 rats
[1] = test system: azoxymethane-induced colon neoplasms in Fischer 344 rats; assay: Azoxymethane-induced colon tumors in rats on supplemented AIN-76 diet (Example 1); settings: for Tumor bearing rats, benign (adenoma), number / Tumor bearing rats, benign (adenoma), {%} / Tumor bearing rats, malignant (cancers), number / Tumor bearing rats, malignant (cancers), {%} / Tumor bearing rats, total, number / Tumor bearing rats, total, {%}: azoxymethane 15 mg/kg s.c., sacrifice after 28 weeks
Protocol: (§1) The control group diet is not supplemented at all. After 2 weeks, half of the rats in each group receive azoxymethane (15 mg/kg) or azoxymethane vehicle subcutaneously once a week for two weeks. […] After 28 weeks, the rats are sacrificed, the colons harvested and examined for neoplasms. None of the rats injected with azoxymethane vehicle develop tumors. Since it is believed that malignancies develop from adenomas, the total tumor bearing rat values are particularly enlightening as this represents the number of growths that are still in the adenoma stage and the number of growths that have continued to progress to cancers. Ursodiol reduced the number of growths from control by 50%, with a 100% reduction in those that progressed to cancers and a 33% reduction in the number of tumors that still remained as adenomas.

[2] = test system: azoxymethane-induced colon neoplasms in Fischer 344 rats; assay: Azoxymethane rat model, incidence of microadenomas, adenomas and cancers (Example 2); design: Tumor bearing rats, benign (microadenoma) / Tumor bearing rats, benign (adenoma) / Tumor bearing rats, malignant (cancers) / Tumor bearing rats, total: unit not given here; settings: for Tumor bearing rats, benign (adenoma) / Tumor bearing rats, benign (microadenoma) / Tumor bearing rats, malignant (cancers) / Tumor bearing rats, total: azoxymethane model as Example 1
Protocol: as §1
The procedure of Example 1 was followed except that the number of rats involved are as stated in the table below and aberrant crypt frequency was examined upon sacrifice of the rats. The incidence of microadenomas, adenomas, and cancers in the tested populations was recorded and appears in the table below.

[3] = test system: azoxymethane-induced colon neoplasms in Fischer 344 rats; assay: Azoxymethane rat model, 7 diets, two study centers (Example 3)
Protocol: The control group diet is not supplemented at all. After 2 weeks, half of the rats in each group receive azoxymethane (15 mg/kg) or azoxymethane vehicle subcutaneously once a week for two weeks. […] After 28 weeks, the rats are sacrificed, the colons harvested and examined for neoplasms.

[4] = piroxicam diet, level not given
[5] = Study Center 2, standard diet + Piroxicam, level not given
[6] = Study center 1, standard diet + Piroxicam, level not given
[7] = Study Center 2, standard diet + 0.2%
[8] = Study Center 2, standard diet + 0.4%
[9] = Study center 1, standard diet + 0.2%
[10] = Study center 1, standard diet + 0.4%

Compound	Tumor bearing rats, benign (adenoma), number ([1]; diet supplement 0.4%)	Tumor bearing rats, benign (adenoma), {%} ([1]; diet supplement 0.4%) [%]	Tumor bearing rats, malignant (cancers), number ([1]; diet supplement 0.4%)	Tumor bearing rats, malignant (cancers), {%} ([1]; diet supplement 0.4%)	Tumor bearing rats, total, {%} ([1]; diet supplement 0.4%) [%]	Tumor bearing rats, benign (adenoma) ([2]; diet supplement 0.4%)	Tumor bearing rats, benign (microadenoma) ([2]; diet supplement 0.4%)	Tumor bearing rats, malignant (cancers) ([2]; diet supplement 0.4%)	Tumor bearing rats, benign [3, 7]	Tumor bearing rats, malignant [3, 7]	Tumor bearing rats, total [3, 7]	Tumor bearing rats, benign [3, 8]	Tumor bearing rats, malignant [3, 8]	Tumor bearing rats, total [3, 8]	Tumor bearing rats, benign [3, 9]	Tumor bearing rats, malignant [3, 9]	Tumor bearing rats, total [3, 9]	Tumor bearing rats, benign [3, 10]	Tumor bearing rats, malignant [3, 10]	Tumor bearing rats, total [3, 10]	further results
CN1C(C(=O)Nc2ccccn2)=C(O)c2ccccc2S1(=O)=O [Piroxicam]	–	–	–	–	–	–	–	–	–	–	–	–	–	–	–	–	–	–	–	–	Effect on adenomas and malignancies ([1]; 75 ppm in diet, in words, compared with ursodiol): reduced both adenomas and malignancies, but neither was reduced as dramatically as seen with ursodiol administration; Tumor bearing rats, benign (adenoma), number ([1]; diet supplement 75 ppm): 16; Tumor bearing rats, benign (adenoma), {%} ([1]; diet supplement 75 ppm): 29%; Tumor bearing rats, malignant (cancers), number ([1]; diet supplement 75 ppm): 3; Tumor bearing rats, malignant (cancers), {%} ([1]; diet supplement 75 ppm): 5%; Tumor bearing rats, total, number ([1]; diet supplement 75 ppm): 19; Tumor bearing rats, total, {%} ([1]; diet supplement 75 ppm): 34%; Tumor bearing rats, benign (adenoma) [2, 4]: 42; Tumor bearing rats, benign (microadenoma) [2, 4]: 25; Tumor bearing rats, malignant (cancers) [2, 4]: 8; Tumor bearing rats, total [2, 4]: 75; Tumor bearing rats, benign [3, 5]: 8; Tumor bearing rats, malignant [3, 5]: 2; Tumor bearing rats, total [3, 5]: 10; Tumor bearing rats, benign [3, 6]: 8; Tumor bearing rats, malignant [3, 6]: 1; Tumor bearing rats, total [3, 6]: 9
C[C@H](CCC(=O)O)[C@H]1CC[C@H]2[C@@H]3[C@@H](O)C[C@@H]4C[C@H](O)CC[C@]4(C)[C@H]3CC[C@]12C [Ursodiol, 3-α-7-β-dihydroxy-5-β-cholan-24-oic acid]	10	22	0 {0}	0 {0} %	22	27	23	0	6	4	10	6	0	6	8	5	13	4	0	4	Reduction of the number of growths from control ([1]; 0.4% in diet, total tumor bearing rats vs control): 50%; Reduction in growths that progressed to cancers ([1]; 0.4% in diet, vs control): 100%; Reduction in the number of tumors that still remained as adenomas ([1]; 0.4% in diet, vs control): 33%; Tumor bearing rats, total, number ([1]; diet supplement 0.4%): 10; Effect on incidence of malignancies and on number and size of non-cancerous or pre-cancerous growths ([2]; 0.4% in diet, in words): not only reduces the incidence of malignancies, but also reduces both the number and size of the non-cancerous or pre-cancerous growths; Tumor bearing rats, total ([2]; diet supplement 0.4%): 50; Effect in preventing the development of tumors at lower concentration ([3]; 0.2% in diet compared with 0.4%, in words): does not seem to be as strong as lower concentrations of ursodiol, i.e., 0.2%
C[C@H](CCC(=O)O)[C@H]1CC[C@H]2[C@@H]3[C@H](O)C[C@@H]4C[C@H](O)CC[C@]4(C)[C@H]3C[C@H](O)[C@]12C [Cholic Acid, Cholic acid]	20	43	14	30%	73	71	57	38	6	8	14	8	9	17	12	4	16	12	5	17	Effect on number of adenomas present ([1]; 0.4% in diet, in words): increased the number of adenomas which were present; Effect on number of malignancies over control ([1]; 0.4% in diet, in words): increased the number of malignancies over control; Tumor bearing rats, total, number ([1]; control, diet not supplemented): 34; Tumor bearing rats, total [2]: 166
